According to ChEMBL document CHEMBL1201862, “PubChem BioAssay data set” (2004):
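Briefly, cells in 96-well plates were exposed to five compound concentrations for 48 h, and endpoints were estimated by linear interpolation. GI50 = concentration required for 50% inhibition of growth.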 Calls of active or inactive are those of the source. No stated cut-off is given here; in the data, active = GI50 up to about 1.1 µM and inactive = higher.

Legend:
Test in all cases: NCI-60 cell line screen, 48 h
BT-549 = test system: BT-549
CAKI-1 = test system: CAKI-1
DU-145 = test system: DU-145
EKVX = test system: EKVX
HCT-15 = test system: HCT-15
HOP-92 = test system: HOP-92
IGROV-1 = test system: IGROV-1
KM12 = test system: KM12
NCI-H226 = test system: NCI-H226
NCI-H460 = test system: NCI-H460
OVCAR-3 = test system: OVCAR-3
OVCAR-4 = test system: OVCAR-4
OVCAR-5 = test system: OVCAR-5
SF-268 = test system: SF-268
SN12C = test system: SN12C
SNB-75 = test system: SNB-75
SR = test system: SR
SW-620 = test system: SW-620
UACC-257 = test system: UACC-257
UACC-62 = test system: UACC-62

| Compound | GI50 (BT-549) | GI50 (CAKI-1) | GI50 (DU-145) | GI50 (EKVX) | GI50 (HCT-15) [µM] | GI50 (HOP-92) | GI50 (IGROV-1) | GI50 (KM12) | GI50 (NCI-H226) | GI50 (NCI-H460) | GI50 (OVCAR-3) | GI50 (OVCAR-4) | GI50 (OVCAR-5) | GI50 (SF-268) | GI50 (SN12C) | GI50 (SNB-75) | GI50 (SR) | GI50 (SW-620) | GI50 (UACC-257) | GI50 (UACC-62) |
| --- | --- | --- | --- | --- | --- | --- | --- | --- | --- | --- | --- | --- | --- | --- | --- | --- | --- | --- | --- | --- |
| CC(=O)NC(CS)C(=O)O (stereo not given) | > 100 µM (inactive) | 6030 µM (inactive) | 21400 µM (inactive) | 4670 µM (inactive) | 12900 | 12500 µM (inactive) | 2610 µM (inactive) | 33300 µM (inactive) | 10500 µM (inactive) | 18400 µM (inactive) | 16800 µM (inactive) | 50900 µM (inactive) | 14500 µM (inactive) | 20900 µM (inactive) | 26300 µM (inactive) | 10700 µM (inactive) | 44100 µM (inactive) | 11000 µM (inactive) | 21400 µM (inactive) | 27300 µM (inactive) |
| CCN(CC)CCOC(=O)Cc1cccc2c(=O)cc(-c3ccccc3)oc12 | 40.7 µM (inactive) | 13.6 µM (inactive) | 40.3 µM (inactive) | 40.7 µM (inactive) | 18.5 | 21.7 µM (inactive) | 44.6 µM (inactive) | 34.8 µM (inactive) | 38.8 µM (inactive) | 10.2 µM (inactive) | 52.8 µM (inactive) | 35.9 µM (inactive) | 57.9 µM (inactive) | 47.2 µM (inactive) | 51.2 µM (inactive) | 41.7 µM (inactive) | 24.4 µM (inactive) | 50.7 µM (inactive) | 54.3 µM (inactive) | 29 µM (inactive) |
| Nc1ccc(Sc2c3ccccc3nc3ccccc23)cc1 | 14.3 µM (inactive) | 18.5 µM (inactive) | 13.7 µM (inactive) | 23 µM (inactive) | 17.2 | 10.1 µM (inactive) | 17.7 µM (inactive) | 18.6 µM (inactive) | 18.7 µM (inactive) | 20.4 µM (inactive) | 15.6 µM (inactive) | 12.1 µM (inactive) | 21.8 µM (inactive) | 18.5 µM (inactive) | 18.5 µM (inactive) | 17.1 µM (inactive) | 3.74 µM (inactive) | 10.4 µM (inactive) | 16.6 µM (inactive) | 15.2 µM (inactive) |
| COC(=O)[C@H]1[C@H](C(=O)OC)[C@@H](C)c2c(ccc3c2[nH]c2ccccc23)[C@@H]1C | > 100 µM (inactive) | 68.4 µM (inactive) | 41.5 µM (inactive) | 69.8 µM (inactive) | > 100 | 37.9 µM (inactive) | 71.9 µM (inactive) | 32.9 µM (inactive) | > 100 µM (inactive) | 36.8 µM (inactive) | 69.2 µM (inactive) | 38.9 µM (inactive) | > 100 µM (inactive) | 48.9 µM (inactive) | 13.2 µM (inactive) | 19.7 µM (inactive) | 0.521 µM (active) | 95.1 µM (inactive) | 19.4 µM (inactive) | > 100 µM (inactive) |
| CC(C)C(C/C=C1/CC(CO)(COC(=O)CC(C(C)C)C(C)C)OC1=O)C(C)C (stereo not given) | 15 µM (inactive) | 2.15 µM (inactive) | 13.2 µM (inactive) | 1.79 µM (inactive) | 15.6 | 0.998 µM (active) | 17.1 µM (inactive) | 6.82 µM (inactive) | 8.93 µM (inactive) | 2.44 µM (inactive) | 13.8 µM (inactive) | 17.3 µM (inactive) | 9.42 µM (inactive) | 10.6 µM (inactive) | 14.2 µM (inactive) | 1.78 µM (inactive) | 17.1 µM (inactive) | 0.991 µM (active) | 16 µM (inactive) | 15.7 µM (inactive) |
| O=C(NC(=O)c1c(F)cccc1F)Nc1cccc(Oc2ncc(Cl)cn2)c1 | > 24.8 µM (inactive) | 30 µM (inactive) | > 100 µM (inactive) | > 100 µM (inactive) | 3.27 | 16.6 µM (inactive) | 33.4 µM (inactive) | 1.4 µM (inactive) | 62.7 µM (inactive) | 4.51 µM (inactive) | 40.4 µM (inactive) | > 69 µM (inactive) | > 100 µM (inactive) | 36.5 µM (inactive) | 45.1 µM (inactive) | 19.5 µM (inactive) | 6.1 µM (inactive) | 4.3 µM (inactive) | > 100 µM (inactive) | 36.6 µM (inactive) |
| CCOC(=O)C1=C(C)OC(=O)[C@@]2(OC)C=C(Cl)[C@@]12C | > 100 µM (inactive) | > 100 µM (inactive) | > 100 µM (inactive) | > 100 µM (inactive) | > 100 | > 100 µM (inactive) | > 100 µM (inactive) | > 100 µM (inactive) | > 100 µM (inactive) | > 100 µM (inactive) | > 100 µM (inactive) | > 100 µM (inactive) | > 100 µM (inactive) | > 100 µM (inactive) | > 100 µM (inactive) | > 100 µM (inactive) | > 100 µM (inactive) | > 100 µM (inactive) | > 100 µM (inactive) | > 100 µM (inactive) |
| CCc1nc(N)nc(N)c1-c1ccc(N2CCNCC2)cc1 | 64 µM (inactive) | > 97.3 µM (inactive) | 62.7 µM (inactive) | > 83 µM (inactive) | 54.5 | > 100 µM (inactive) | 64.7 µM (inactive) | > 95.9 µM (inactive) | > 100 µM (inactive) | 33.1 µM (inactive) | > 83.8 µM (inactive) | 74.8 µM (inactive) | > 100 µM (inactive) | 84.7 µM (inactive) | 87.7 µM (inactive) | > 100 µM (inactive) | 23.4 µM (inactive) | 56.5 µM (inactive) | 33.2 µM (inactive) | 69 µM (inactive) |
| C=C(C(=O)O)[C@@H]1C[C@@H]2O[C@H]1CC(C)=CCC/C(C)=C/CC[C@@]2(C)O | > 100 µM (inactive) | > 100 µM (inactive) | > 100 µM (inactive) | > 100 µM (inactive) | > 100 | 93.5 µM (inactive) | > 100 µM (inactive) | > 100 µM (inactive) | > 100 µM (inactive) | > 100 µM (inactive) | > 100 µM (inactive) | > 100 µM (inactive) | > 100 µM (inactive) | > 100 µM (inactive) | > 100 µM (inactive) | > 100 µM (inactive) | > 100 µM (inactive) | > 100 µM (inactive) | > 100 µM (inactive) | > 100 µM (inactive) |
| CCOP(=O)(OCC)/C(C#N)=C(\C)c1ccco1 | > 10 µM (inactive) | > 10 µM (inactive) | > 10 µM (inactive) | > 10 µM (inactive) | > 10 | > 10 µM (inactive) | > 10 µM (inactive) | > 10 µM (inactive) | > 10 µM (inactive) | > 10 µM (inactive) | > 10 µM (inactive) | > 10 µM (inactive) | > 10 µM (inactive) | > 10 µM (inactive) | > 10 µM (inactive) | > 10 µM (inactive) | > 10 µM (inactive) | > 10 µM (inactive) | > 10 µM (inactive) | > 10 µM (inactive) |
| S=C(Nc1cccc(C2(N3CCCCC3)CCCCC2)c1)Nc1cccc(C2(N3CCCCC3)CCCCC2)c1 | 41.1 µM (inactive) | 42 µM (inactive) | 27.3 µM (inactive) | 38 µM (inactive) | 32.2 | 10.3 µM (inactive) | 54.5 µM (inactive) | 16 µM (inactive) | 27.2 µM (inactive) | 18.7 µM (inactive) | 21.8 µM (inactive) | 35.6 µM (inactive) | 66.4 µM (inactive) | 36.8 µM (inactive) | 31.6 µM (inactive) | 12.9 µM (inactive) | 13.6 µM (inactive) | 37.8 µM (inactive) | 18 µM (inactive) | 18.9 µM (inactive) |
| O=C1C=CC2(C=C1)O[C@H](CCc1ccccc1)[C@@H](CCc1ccccc1)O2 | > 100 µM (inactive) | > 100 µM (inactive) | > 100 µM (inactive) | 24 µM (inactive) | > 100 | 21.9 µM (inactive) | 98.9 µM (inactive) | > 100 µM (inactive) | > 100 µM (inactive) | > 100 µM (inactive) | > 100 µM (inactive) | 85.5 µM (inactive) | > 100 µM (inactive) | 61.8 µM (inactive) | > 100 µM (inactive) | > 100 µM (inactive) | > 100 µM (inactive) | > 100 µM (inactive) | > 100 µM (inactive) | > 100 µM (inactive) |
| N=C(N)N/N=C/c1c(-c2ccc(Cl)cc2)nc2sccn12 | 3.01 µM (inactive) | 3.21 µM (inactive) | 3.34 µM (inactive) | 14.6 µM (inactive) | 2.54 | 2.1 µM (inactive) | 1.85 µM (inactive) | 1.96 µM (inactive) | 2.21 µM (inactive) | 1.76 µM (inactive) | 1.6 µM (inactive) | 2.06 µM (inactive) | 2.3 µM (inactive) | 1.8 µM (inactive) | 1.95 µM (inactive) | 1.77 µM (inactive) | 3.46 µM (inactive) | 1.55 µM (inactive) | 1.95 µM (inactive) | 1.69 µM (inactive) |
| O=C(ON=c1c2ccccc2ccc2ccccc12)c1ccccc1 | 31.6 µM (inactive) | 24.4 µM (inactive) | 42.2 µM (inactive) | 35.7 µM (inactive) | 29.7 | 26.2 µM (inactive) | 24 µM (inactive) | 11.8 µM (inactive) | 22.3 µM (inactive) | 43.2 µM (inactive) | 23.5 µM (inactive) | 28 µM (inactive) | 60.8 µM (inactive) | 35.6 µM (inactive) | 27.2 µM (inactive) | 26.5 µM (inactive) | 8.39 µM (inactive) | 18.1 µM (inactive) | 27.6 µM (inactive) | 16.2 µM (inactive) |
